The test concerns HiBiT-HSD17β13 fusion protein (N-terminal HiBiT-tagged HSD17β13 isoform D) in Huh7 HiBiT-HSD17β13 OE cells. In words: Whole-cell Huh7-HSD17B13 HiBiT assay (degrader potency and maximal efficacy, luminescence readout). The class given is cell-based, human. The following applies: 24 hour incubation, geometric mean, * = geometric mean for all forms tested (parent and salt forms); for DC50: read-out: Huh7_HIBIT-HSD17β13_DC50 GMean DC50; for Huh7_HIBIT-HSD17β13_DC50 GMean Asymptote Maximum: max. concentration 1 μM. The procedure, abridged: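 Luminescence from lytic HiBiT detection tracked residual HiBiT-HSD17β13 (isoform D, N-terminal tag) in a stable Huh7 overexpressing clone after 24 h compound treatment at 37° C, 11 concentrations up to 1 μM final. Percent effect used DMSO (zero) and parental Huh7 (high) wells; four-parameter fit gave 50% degradation; viability checked by CellTiter-Glo.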

Molecules are shown by their SMILES. Structures can show the parent of a compound that is named as a salt.

Turning to `Cl.Cn1c(=O)n(C2CCC(=O)NC2=O)c2ccc(CCN3CCN(c4cnc(-c5ccc6cn(C7CCC(CNC(=O)c8cc(F)c(O)c(F)c8F)CC7)nc6c5)cn4)CC3)cc21` (racemic) [Example 8, N-{[(1r,4r)-4-(6-{5-[4-(2-{1-[(3RS)-2,6-Dioxopiperidin-3-yl]-3-methyl-2-oxo-2,3-dihydro-1H-benzimidazol-5-yl}ethyl)piperazin-1-yl]pyrazin-2-yl}-2H-indazol-2-yl)cyclohexyl]methyl}-2,3,5-trifluoro-4-hydroxybenzamide, hydrochloride salt], the DC50 came out at 0.21 nM and the “Huh7_HIBIT-HSD17β13_DC50 GMean Asymptote Maximum” value is listed as 87* %.
Taken in the same sequence, the figures for `O=C1CCC(N2Cc3c(OCc4ccc(CN5CCC(CCCOc6ccc(-c7noc([C@]89CC[C@](CNC(=O)c%10cc(F)c(O)c(F)c%10)(CC8)CC9)n7)nn6)CC5)cc4)cccc3C2=O)C(=O)N1` (mixture of isomers) [Example 37, N-({4-[3-(6-{3-[1-({4-[({2-[(3RS)-2,6-dioxopiperidin-3-yl]-1-oxo-2,3-dihydro-1H-isoindol-4-yl}oxy)methyl]phenyl}methyl)piperi-din-4-yl]propoxy}pyridazin-3-yl)-1,2,4-oxadiazol-5-yl]bicyclo[2.2.2]octan-1-yl}methyl)-3,5-difluoro-4-hydroxybenzamide, trifluoroacetate salt] were 2 nM and 85%.
Taken in the same sequence, the figures for `Cn1c(=O)n(C2CCC(=O)NC2=O)c2ccc(CCCN3CCN(c4cccc(-c5nc(C67CCC(CNC(=O)c8cc(F)c(O)c(F)c8F)(CC6)CC7)no5)c4)CC3)cc21` (racemic) [Example 81, N-{[4-(5-{3-[4-(3-{1-[(3RS)-2,6-dioxopiperidin-3-yl]-3-methyl-2-oxo-2,3-dihydro-1H-benzimidazol-5-yl}propyl)piperazin-1-yl]phenyl}-1,2,4-oxadiazol-3-yl)bicyclo[2.2.2]octan-1-yl]methyl}-2,3,5-trifluoro-4-hydroxybenzamide] were 0.86 nM and 81%.
Regarding `Cn1c(=O)n(C2CCC(=O)NC2=O)c2ccc(CCCN3CCN(c4cnc(-c5nc([C@]67CC[C@](CNC(=O)c8cc(F)c(O)c(F)c8F)(CC6)CC7)no5)cn4)CC3)cc21` (mixture of isomers) [Example 69, N-{[4-(5-{5-[4-(3-{1-[(3RS)-2,6-dioxopiperidin-3-yl]-3-methyl-2-oxo-2,3-dihydro-1H-benzimidazol-5-yl}propyl)piperazin-1-yl]pyrazin-2-yl}-1,2,4-oxadiazol-3-yl)bicyclo[2.2.2]octan-1-yl]methyl}-2,3,5-trifluoro-4-hydroxybenzamide, trifluoroacetate salt], the DC50 was 0.16 nM and the “Huh7_HIBIT-HSD17β13_DC50 GMean Asymptote Maximum” value amounted to 88%.
Taken in the same sequence, the figures for `Cn1c(=O)n(C2CCC(=O)NC2=O)c2ccc(CCCN3CCN(c4cnc(-c5ccc6cn([C@H]7CC[C@H](CNC(=O)c8cc(F)c(O)c(F)c8F)CC7)nc6c5)nc4)CC3)cc21` (mixture of isomers) [Example 76, N-{[(1r,4r)-4-(6-{5-[4-(3-{1-[(3RS)-2,6-dioxopiperidin-3-yl]-3-methyl-2-oxo-2,3-dihydro-1H-benzimidazol-5-yl}propyl)piperazin-1-yl]pyrimidin-2-yl}-2H-indazol-2-yl)cyclohexyl]methyl}-2,3,5-trifluoro-4-hydroxybenzamide, trifluoroacetate salt] were 0.15 nM and 89* %.
Taken in the same sequence, the figures for `Cc1ccc(C(=O)N2CCC3(CCC(N4CCN(c5ccc6cn([C@H]7CC[C@H](CNC(=O)c8cc(F)c(O)c(F)c8)CC7)nc6c5)CC4)CC3)CC2)cc1N1CCC(=O)NC1=O` [Example 109, N-({(1r,4r)-4-[6-(4-{3-[3-(2,4-dioxo-1,3-diazinan-1-yl)-4-methylbenzoyl]-3-azaspiro[5.5]undecan-9-yl}piperazin-1-yl)-2H-indazol-2-yl]cyclohexyl}methyl)-3,5-difluoro-4-hydroxybenzamide] were 1.1 nM and 81%.
Taken in the same sequence, the figures for `Cn1c(=O)n(C2CCC(=O)NC2=O)c2ccc(CCCN3CCN(c4cc5cn([C@H]6CC[C@H](CNC(=O)c7cc(F)c(O)c(F)c7F)CC6)nc5cn4)CC3)cc21` (mixture of isomers) [Example 93, N-{[(1r,4r)-4-{5-[4-(3-{1-[(3RS)-2,6-dioxopiperidin-3-yl]-3-methyl-2-oxo-2,3-dihydro-1H-benzimidazol-5-yl}propyl)piperazin-1-yl]-2H-pyrazolo[3,4-c]pyridin-2-yl}cyclohexyl]methyl}-2,3,5-trifluoro-4-hydroxybenzamide, formate salt] were 0.69 nM and 83%.
On to `Cn1c(=O)n(C2CCC(=O)NC2=O)c2ccc(CCCN3CCN(c4ncc(-c5ccn6cc(C78CCC(CNC(=O)c9cc(F)c(O)c(F)c9F)(CC7)CC8)nc6c5)cn4)CC3)cc21.O=C(O)C(F)(F)F` (racemic) [Example 12, N-{[4-(7-{2-[4-(3-{1-[(3RS)-2,6-Dioxopiperidin-3-yl]-3-methyl-2-oxo-2,3-dihydro-1H-benzimidazol-5-yl}propyl)piperazin-1-yl]pyrimidin-5-yl}imidazo[1,2-a]pyridin-2-yl)bicyclo[2.2.2]octan-1-yl]methyl}-2,3,5-trifluoro-4-hydroxybenzamide, trifluoroacetate salt], for which the DC50 is 0.14 nM and the “Huh7_HIBIT-HSD17β13_DC50 GMean Asymptote Maximum” value came to 84%.
Taken in the same sequence, the figures for `Cn1c(=O)n(C2CCC(=O)NC2=O)c2ccc(CC(C)(C)CN3CCN(c4nccc(-c5nc([C@]67CC[C@](CNC(=O)c8cc(F)c(O)c(F)c8F)(CC6)CC7)no5)n4)CC3)cc21` (mixture of isomers) [Example 134, N-{[4-(5-{2-[4-(3-{1-[(3RS)-2,6-dioxopiperidin-3-yl]-3-methyl-2-oxo-2,3-dihydro-1H-benzimidazol-5-yl}-2,2-dimethylpropyl)piperazin-1-yl]pyrimidin-4-yl}-1,2,4-oxadiazol-3-yl)bicyclo[2.2.2]octan-1-yl]methyl}-2,3,5-trifluoro-4-hydroxybenzamide, trifluoroacetate salt] were 6.5 nM and 85%.
Taken in the same sequence, the figures for `Cc1ccc(C(=O)N2CCC3(CC2)CC(N2CCN(c4ncc(-c5ccc6cn(C7CCC(CNC(=O)c8cc(F)c(O)c(F)c8F)CC7)nc6c5)cn4)CC2)CO3)cc1N1CCC(=O)NC1=O` (stereo not drawn) [Example 11, N-{[(1r,4r)-4-{6-[2-(4-{8-[3-(2,4-Dioxo-1,3-diazinan-1-yl)-4-methylbenzoyl]-1-oxa-8-azaspiro[4.5]decan-3-yl}piperazin-1-yl)pyrimidin-5-yl]-2H-indazol-2-yl}cyclohexyl]methyl}-2,3,5-trifluoro-4-hydroxybenzamide] were 0.94 nM and 81%.
Taken in the same sequence, the figures for `O=C1CCN(c2cnn3cc(CCN4CCN(c5ncc(-c6ccc7cn([C@H]8CC[C@H](CNC(=O)c9cc(F)c(O)c(F)c9F)CC8)nc7c6)cn5)CC4)ccc23)C(=O)N1` [Example 54, N-{[(1r,4r)-4-{6-[2-(4-{2-[3-(2,4-dioxo-1,3-diazinan-1-yl)pyrazolo[1,5-a]pyridin-6-yl]ethyl}piperazin-1-yl)pyrimidin-5-yl]-2H-indazol-2-yl}cyclohexyl]methyl}-2,3,5-trifluoro-4-hydroxybenzamide, trifluoroacetate salt] were 0.64 nM and 83%.
On to `Cc1ccc(C(=O)N2CCC3(CC2)CCN(c2ncc(-c4ccc5cn([C@H]6CC[C@H](CNC(=O)c7cc(F)c(O)c(F)c7F)CC6)nc5c4)cn2)C3)cc1N1CCC(=O)NC1=O` [Example 63, N-({(1r,4r)-4-[6-(2-{8-[3-(2,4-dioxo-1,3-diazinan-1-yl)-4-methylbenzoyl]-2,8-diazaspiro[4.5]decan-2-yl}pyrimidin-5-yl)-2H-indazol-2-yl]cyclohexyl}methyl)-2,3,5-trifluoro-4-hydroxybenzamide], for which the DC50 worked out at 2.6 nM and the “Huh7_HIBIT-HSD17β13_DC50 GMean Asymptote Maximum” value is 80%.
On to `Cn1c(=O)n(C2CCC(=O)NC2=O)c2ccc(CN3CCOC4(CCN(c5ccc6cn([C@H]7CC[C@H](CNC(=O)c8cc(F)c(O)c(F)c8F)CC7)nc6c5)CC4)C3)cc21` (mixture of isomers) [Example 77, N-{[(1r,4r)-4-{6-[4-({1-[(3RS)-2,6-dioxopiperidin-3-yl]-3-methyl-2-oxo-2,3-dihydro-1H-benzimidazol-5-yl}methyl)-1-oxa-4,9-diazaspiro[5.5]undecan-9-yl]-2H-indazol-2-yl}cyclohexyl]methyl}-2,3,5-trifluoro-4-hydroxybenzamide, trifluoroacetate salt], for which the DC50 is 0.93 nM and the “Huh7_HIBIT-HSD17β13_DC50 GMean Asymptote Maximum” value is reported as 86%.
Taken in the same sequence, the figures for `Cc1ccc(C(=O)N2CCC(CCCN3CCN(c4ccc5cn([C@H]6CC[C@H](CNC(=O)c7cc(F)c(O)c(F)c7F)CC6)nc5c4)CC3)CC2)cc1N1CCC(=O)NC1=O` [Example 40, N-{[(1r,4r)-4-{6-[4-(3-{1-[3-(2,4-dioxo-1,3-diazinan-1-yl)-4-methylbenzoyl]piperidin-4-yl}propyl)piperazin-1-yl]-2H-indazol-2-yl}cyclohexyl]methyl}-2,3,5-trifluoro-4-hydroxybenzamide, trifluoroacetate salt] were 4.1 nM and 74%.
Taken in the same sequence, the figures for `Cn1c(=O)n(C2CCC(=O)NC2=O)c2ccc(CCN3CCN(c4ncc(-c5ccc6cn([C@H]7CC[C@H](CNC(=O)c8cc(F)c(O)c(F)c8F)CC7)nc6c5)cn4)CC3)cc21` (mixture of isomers) [Example 43, N-{[(1r,4r)-4-(6-{2-[4-(2-{1-[(3RS)-2,6-dioxopiperidin-3-yl]-3-methyl-2-oxo-2,3-dihydro-1H-benzimidazol-5-yl}ethyl)piperazin-1-yl]pyrimidin-5-yl}-2H-indazol-2-yl)cyclohexyl]methyl}-2,3,5-trifluoro-4-hydroxybenzamide, trifluoroacetate salt] were 0.29 nM and 83%.

The values are drawn from patent US20240238425A1, “HSD17B13 Inhibitors and/or Degraders” (Pfizer Inc., priority 2022, published 2024).
